Patent US7541188B2, “Skin substitutes and uses thereof” (Stratatech Corporation, priority 2001, dated 2009)
Like-named read-outs stand apart in the source and are kept apart here.

Columns and labels:
skin equivalents = conditions: irritant-treated skin equivalents; cited from earlier work
[1] = test system: tracheobronchial epithelial cells; conditions: cited from earlier work
[2] = test system: in vitro skin equivalent cultures; conditions: substance added to in vitro cultures; cited from earlier work
[3] = test system: NIKS organotypic cultures; assay: IL-1α secretion by NIKS organotypic cultures (Quantikine IL-1α ELISA of media); format: cell-based, human; conditions: 0.1% SDS applied topically, 24 hr, 37° C.
Description: Solutions of SDS (0.1%, 0.2%, and 0.5%) were topically applied to air-exposed NIKS organotypic cultures and incubated for 24 hr at 37° C. After 24 hr, the media underneath the cultures was assayed for IL-1α protein using a Quantikine IL-1α ELISA kit (R&D Systems, Minneapolis, Minn.) and cultures were incubated with MTS reagent (Promega Corp., Madison, Wis.) to determine cell viability. Media from untreated cultures contained 25 pg/ml IL-1α, whereas the concentration of IL-1α in cultures treated with 0.1%, 0.2% or 0.5% SDS was 290, 375 and 275 pg/ml respectively.

[4] = test system: in vitro skin equivalent cultures; conditions: substance added to in vitro cultures, cited from earlier work

Molecule | expression and secretion of the pro-inflammatory cytokines IL-1α and IL-8 (skin equivalents) | Barrier Function [4] | other results
C=C1/C(=C\C=C2/CCC[C@]3(C)[C@@H]([C@H](C)/C=C/[C@@H](O)C4CC4)CC[C@@H]23)C[C@@H](O)C[C@@H]1O [calcipotriol] | induce expression and secretion |  | 
CC1=C(/C=C/C(C)=C/C=C/C(C)=C/C(=O)O)C(C)(C)CCC1 [trans-retinoic acid] | induce expression and secretion |  | induction of reporter gene containing IL-8 promoter sequences between −1472 and +19 [1]: induced
EGF: epidermal growth factor (NSDSECPLSHDGYCLHDGVCMYIEALDKYACNCVVGYIGERCQYRDLKWWELR; Epidermal growth factor; UniProt P01133 971-1023, looked up) |  |  | Lipid Composition [2]: High
CCCCCCCCCCCCOS(=O)(=O)[O-].[Na+] [SDS] | induce expression and secretion |  | concentration of IL-1α in media [3]: 290 pg/mL
Vitamin D |  | Improved/No | Barrier Function ([4]; listed as vitamin D): improvements in some studies
Estrogen |  | Accelerates | 
